Measured values as given in patent US4123552A, “Compositions for preserving crops and animal feedstuffs” (Chevron Research Company, priority 1975, dated 1978).

Assays:
All Species = test: Control of seed- and soil-borne pathogens during storage of corn seeds (Table IV), all species; format: cell-based, Rhizopus, Penicillium, Fusarium; conditions: relative to untreated check
Protocol: A variety of bis-esters was tested for the control of seed- and soil-borne pathogens during storage of corn seeds (Zea mays) by the following procedure.
(§1) A small amount of acetone was added to the bis-ester to make specific volume, plus a small portion of emulsifier making it into a slurry. This preparation was diluted with water to the desired concentration. Solution was then evenly distributed on the wall of a glass jar. High moisture feedcorn with natural infection was stored frozen after harvest until used for this test. The corn seeds were rolled in the jar until they were coated and the solution was completely absorbed on them.
(§2) Following the treatment, the corn seeds were plated on Potato Dextrose Agar plates. For comparison, untreated corn seeds were also plated. Propionic acid was also tested for comparison.
The percentage control of all species was based on the total sum average of mycelial growth in millimeters of all species in the treated seeds relative to the untreated check. The fast growing Rhizopus was evaluated 7 days after treatment, the other fungi after 14 days.

Aspergillus niger = test: Concentration for 90% control of pathogen on corn seeds (Table V), Aspergillus niger; format: cell-based; conditions: corn seeds; 14 days after treatment
Protocol: as §1, §2
(§3) A variety of bis-esters was tested for the control of seed- and soil-borne pathogens during the storage of corn seeds (Zea mays) by the procedure of Example 11. For comparison, propionic acid was also tested.
(§4) Control of each pathogen was determined by mycelial growth in millimeters in the treated seeds relative to untreated seeds. Mycelial growth of Rhizopus species and Fusarium species was evaluated 5 days after treatment. Mycelial growth in Aspergillus niger was evaluated 14 days after treatment.
(§5) The bis-ester tested and the concentration of active ingredient in ounces per 100 lbs. of corn seeds for 90 percent control of each pathogen species are tabulated in Table V.

Rhizopus sp. = test: Concentration for 90% control of pathogen on corn seeds (Table V), Rhizopus sp.; format: cell-based; conditions: 5 days after treatment
Protocol: as §1, §2, §3, §4, §5

high moisture corn = test: Preservation of high moisture corn in ventilated cans (time until temperature exceeds room temperature); conditions: for Weeks Effective: corn 25 percent moisture, 70-72 F
Protocol: High moisture corn (25 percent moisture) was treated with various methylene and polyoxymethylene esters of propionic or acetic acid of various dosages. The esters were applied to the corn in a mixer for one minute at 32 RPM. Three replicate two gallon ventilated cans were filled with the treated corn. The cans were then held at a temperature of 70°-72° F. Temperature readings were taken semi-weekly by means of thermocouples in the center of each can. When the temperature exceeded constant room temperature for at least an 8-hour period the treatment was considered broken.

Fusarium sp. = test: Concentration for 90% control of pathogen on corn seeds (Table V), Fusarium sp.; format: cell-based; conditions: 5 days after treatment
Protocol: as §1, §2, §3, §4, §5

[1] = Solubility of insecticides in methylene bispropionate; format: physicochemical; conditions: solvent methylene bispropionate
Protocol: Methylene bispropionate was tested as a solvent for various insecticides. […] O,S-dimethylN-acetyl phosphoramidothioate was soluble in methylene bispropionate to the extent of 5 percent by weight. Chlordane was soluble in methylene bispropionate to the extent of at least 75 percent by weight.

Row | Structure (SMILES) | % Control All Species (All Species; 1.0 Oz./100 Lbs.) | % Control All Species (All Species; 2.5 Oz./100 Lbs.) | % Control All Species (All Species; 6.4 Oz./100 Lbs.) | % Control All Species (All Species; 16 Oz./100 Lbs.) | further results
1 | CCC(=O)O [Propionic acid, reference compound] | 28% | 60% | 99% | 99% | Conc. for 90% Control, Aspergillus niger (Aspergillus niger): 3.4 oz./100 lbs.; Conc. for 90% Control, Rhizopus sp. (Rhizopus sp.): 3.8 oz./100 lbs.; Weeks Effective (high moisture corn; 2 Oz/Bu): 6 Weeks; Weeks Effective (high moisture corn; 3 Oz/Bu): 6 Weeks; Weeks Effective (high moisture corn; 4 Oz/Bu): > 12 Weeks; Weeks Effective (high moisture corn; 6 Oz/Bu): > 12 Weeks; Conc. for 90% Control, Fusarium sp. (Fusarium sp.): 9.6 oz./100 lbs.
2 | CCOP(=S)(OCC)Oc1ccc([N+](=O)[O-])cc1 [parathion, O,O-diethyl-O-p-nitrophenyl phosphorothioate] | – | – | – | – | miscibility with methylene bispropionate (in words) [1]: miscible with methylene bispropionate in all proportions
3 | CC(=O)OCOCOC(C)=O [Oxybismethylene Acetate, Oxybismethylene Bisacetate] | – | – | – | – | Weeks Effective (high moisture corn; 3 Oz/Bu): 5 Weeks; Weeks Effective (high moisture corn; 6 Oz/Bu): > 12 Weeks
4 | CC(=O)OCOC(C)=O [Methylene Bisacetate] | – | – | – | – | Weeks Effective (high moisture corn; 3 Oz/Bu): 6 Weeks; Weeks Effective (high moisture corn; 6 Oz/Bu): > 12 Weeks
5 | CCC(=O)OCOCOC(=O)CC [Oxybismethylene Propionate, Oxybismethylene Bispropionate] | – | – | – | – | Weeks Effective (high moisture corn; 2 Oz/Bu): 6 Weeks; Weeks Effective (high moisture corn; 3 Oz/Bu): 12 Weeks; Weeks Effective (high moisture corn; 4 Oz/Bu): > 12 Weeks; Weeks Effective (high moisture corn; 5 Oz/Bu): > 12 Weeks; effectiveness in preservation of high moisture corn (in words) (high moisture corn; from Table II): remarkably superior to propionic acid in the preservation of high moisture corn
6 | ClC1=C(Cl)C2(Cl)C3C(Cl)C(Cl)CC3C1(Cl)C2(Cl)Cl (stereo not shown) [Chlordane] | – | – | – | – | solubility in methylene bispropionate [1]: at least 75 percent by weight
7 | CC(C)C(=O)OCOC(=O)C(C)C [Methylene Bisisobutyrate] | 98% | 99% | 100% | 98% | Conc. for 90% Control, Aspergillus niger (Aspergillus niger): * (No Control at 2.5 oz./100 lbs.); Conc. for 90% Control, Rhizopus sp. (Rhizopus sp.): 3.2 oz./100 lbs.; Conc. for 90% Control, Fusarium sp. (Fusarium sp.): 2.0 oz./100 lbs.
8 | CCCC(=O)OCOCOC(=O)CCC [Oxybismethylene Bisbutyrate] | 100% | 100% | 100% | 100% | Conc. for 90% Control, Aspergillus niger (Aspergillus niger): 0.57 oz./100 lbs.; Conc. for 90% Control, Rhizopus sp. (Rhizopus sp.): 1.1 oz./100 lbs.; Conc. for 90% Control, Fusarium sp. (Fusarium sp.): 1.0 oz./100 lbs.
9 | CCOC(=O)CC(SP(=S)(OC)OC)C(=O)OCC (stereo not drawn) [Malathion, S-[1,2-bis(ethoxycarbonyl)ethyl]-O,O-dimethyl phosphorodithioate] | – | – | – | – | miscibility with methylene bispropionate (in words) [1]: miscible with methylene bispropionate in all proportions
10 | COP(=O)(NC(C)=O)SC (stereo not shown) [O,S-dimethylN-acetyl phosphoramidothioate] | – | – | – | – | solubility in methylene bispropionate [1]: 5 percent by weight
11 | CCC(=O)OC(C)OC(=O)CC [Ethylidene Bispropionate] | 44% | 50% | 83% | 91% | –
12 | CC(C)C(=O)OCOCOC(=O)C(C)C [Oxybismethylene Bisisobutyrate] | 73% | 87% | 100% | 100% | Conc. for 90% Control, Aspergillus niger (Aspergillus niger): 0.88 oz./100 lbs.; Conc. for 90% Control, Rhizopus sp. (Rhizopus sp.): 1.2 oz./100 lbs.; Conc. for 90% Control, Fusarium sp. (Fusarium sp.): 0.88 oz./100 lbs.
13 | CCC(=O)OC(OC(=O)CC)C(Cl)(Cl)Cl [2,2,2-Trichloroethylidene Bispropionate] | 8% | 54% | 74% | – | % Control All Species (All Species; 18 Oz./100 Lbs.): 89%
14 | CC(=O)OC(C)OC(C)=O [Ethylidene Bisacetate] | 60% | 87% | 93% | 100% | –
15 | CCC(=O)OC(OC(=O)CC)c1ccccc1 [Benzylidene Bispropionate] | 46% | 54% | 79% | 91% | –
